{"source": "patent US12544395B2", "about": "“Combination compositions comprising a beta-lactamase inhibitor and uses thereof” (priority 2018, dated 2026)", "key": {"[1]": {"test_system": "K. pneumoniae ESBL 8 #2", "experiment": "Broth microdilution MIC (strain enzymes: SHV-12, TEM-1)", "type": "cell-based"}, "[2]": {"test_system": "K. pneumoniae ESBL 7 #2", "experiment": "Broth microdilution MIC (strain enzymes: SHV-12, CTX-M15, TEM-1)", "type": "cell-based"}, "[3]": {"test_system": "K. pneumoniae KP 4", "experiment": "Broth microdilution MIC (strain enzymes: SHV-2a, SHV-5, TEM-1)", "type": "cell-based"}, "[4]": {"test_system": "panel of ESBL-producing Enterobacteriaceae (40 strains)", "experiment": "Broth microdilution MIC50/MIC90 summary over the panel", "type": "cell-based"}, "[5]": {"test_system": "E. coli expressing TEM-1+CTX-M-15, CTX-M-15, and KPC-2+SHV-12", "experiment": "Murine ascending UTI model, three strains", "type": "in vivo, mice", "conditions": "added to ceftibuten at 3, 10, 30, 100, and 300 mg/kg, SC every 12 hours for 3 days"}, "[6]": {"test_system": "three strains of E. coli expressing TEM-1+CTX-M-15, CTX-M-15, and KPC-2+SHV-12", "experiment": "MIC against the UTI test strains", "type": "cell-based", "conditions": "with Compound 2 at a fixed concentration of 4 μg/mL"}}, "data": [{"compound": "CCC(=O)N[C@H]1Cc2cccc(C(=O)O)c2OB1O", "note": "[Compound 2, (R)-2-hydroxy-3-propionamido-3,4-dihydro-2H-benzo[e][1,2]oxaborinine-8-carboxylic acid]", "values": [{"measurement": "MIC of cefixime (CFM)", "setting": "[1]; with inhibitor at 2 μg/mL", "result": 1, "unit": "µg/mL"}, {"measurement": "MIC of ceftibuten (CTB)", "setting": "[1]; with inhibitor at 2 μg/mL", "result": 0.125, "unit": "µg/mL"}, {"measurement": "MIC of cefalexin (LEX)", "setting": "[1]; with inhibitor at 4 μg/mL", "result": 0.25, "unit": "µg/mL"}, {"measurement": "MIC of cefdinir (CDR)", "setting": "[1]; with inhibitor at 4 μg/mL", "result": 0.25, "unit": "µg/mL"}, {"measurement": "MIC of cefixime (CFM)", "setting": "[1]; with inhibitor at 4 μg/mL", "result": 0.5, "unit": "µg/mL"}, {"measurement": "MIC of ceftibuten (CTB)", "setting": "[1]; with inhibitor at 4 μg/mL", "result": 0.06, "unit": "µg/mL"}, {"measurement": "MIC of cefalexin (LEX)", "setting": "[2]; with inhibitor at 1 μg/mL", "result": ">32", "unit": "µg/mL"}, {"measurement": "MIC of cefdinir (CDR)", "setting": "[2]; with inhibitor at 1 μg/mL", "result": ">32", "unit": "µg/mL"}, {"measurement": "MIC of cefixime (CFM)", "setting": "[2]; with inhibitor at 1 μg/mL", "result": 8, "unit": "µg/mL"}, {"measurement": "MIC of ceftibuten (CTB)", "setting": "[2]; with inhibitor at 1 μg/mL", "result": 4, "unit": "µg/mL"}, {"measurement": "MIC of cefalexin (LEX)", "setting": "[2]; with inhibitor at 2 μg/mL", "result": 32, "unit": "µg/mL"}, {"measurement": "MIC of cefdinir (CDR)", "setting": "[2]; with inhibitor at 2 μg/mL", "result": 32, "unit": "µg/mL"}, {"measurement": "MIC of cefixime (CFM)", "setting": "[2]; with inhibitor at 2 μg/mL", "result": 8, "unit": "µg/mL"}, {"measurement": "MIC of ceftibuten (CTB)", "setting": "[2]; with inhibitor at 2 μg/mL", "result": 2, "unit": "µg/mL"}, {"measurement": "MIC of cefalexin (LEX)", "setting": "[2]; with inhibitor at 4 μg/mL", "result": 16, "unit": "µg/mL"}, {"measurement": "MIC of cefdinir (CDR)", "setting": "[2]; with inhibitor at 4 μg/mL", "result": 16, "unit": "µg/mL"}, {"measurement": "MIC of cefixime (CFM)", "setting": "[2]; with inhibitor at 4 μg/mL", "result": 1, "unit": "µg/mL"}, {"measurement": "MIC of ceftibuten (CTB)", "setting": "[2]; with inhibitor at 4 μg/mL", "result": 1, "unit": "µg/mL"}, {"measurement": "MIC of cefalexin (LEX)", "setting": "[3]; with inhibitor at 1 μg/mL", "result": 0.5, "unit": "µg/mL"}, {"measurement": "MIC of cefdinir (CDR)", "setting": "[3]; with inhibitor at 1 μg/mL", "result": 0.5, "unit": "µg/mL"}, {"measurement": "MIC of cefixime (CFM)", "setting": "[3]; with inhibitor at 1 μg/mL", "result": 2, "unit": "µg/mL"}, {"measurement": "MIC of ceftibuten (CTB)", "setting": "[3]; with inhibitor at 1 μg/mL", "result": 0.25, "unit": "µg/mL"}, {"measurement": "MIC of cefalexin (LEX)", "setting": "[3]; with inhibitor at 2 μg/mL", "result": 0.5, "unit": "µg/mL"}, {"measurement": "MIC of cefdinir (CDR)", "setting": "[3]; with inhibitor at 2 μg/mL", "result": 0.5, "unit": "µg/mL"}, {"measurement": "MIC of cefixime (CFM)", "setting": "[3]; with inhibitor at 2 μg/mL", "result": 0.5, "unit": "µg/mL"}, {"measurement": "MIC of ceftibuten (CTB)", "setting": "[3]; with inhibitor at 2 μg/mL", "result": 0.125, "unit": "µg/mL"}, {"measurement": "MIC of cefalexin (LEX)", "setting": "[3]; with inhibitor at 4 μg/mL", "result": 0.125, "unit": "µg/mL"}, {"measurement": "MIC of cefdinir (CDR)", "setting": "[3]; with inhibitor at 4 μg/mL", "result": 0.125, "unit": "µg/mL"}, {"measurement": "MIC of cefixime (CFM)", "setting": "[3]; with inhibitor at 4 μg/mL", "result": 0.25, "unit": "µg/mL"}, {"measurement": "MIC of ceftibuten (CTB)", "setting": "[3]; with inhibitor at 4 μg/mL", "result": 0.125, "unit": "µg/mL"}, {"measurement": "Cefdinir MIC50", "setting": "[4]; with inhibitor at 1 μg/mL", "result": 0.5, "unit": "µg/mL"}, {"measurement": "Cefdinir MIC90", "setting": "[4]; with inhibitor at 1 μg/mL", "result": 4, "unit": "µg/mL"}, {"measurement": "Cefixime MIC50", "setting": "[4]; with inhibitor at 1 μg/mL", "result": 1, "unit": "µg/mL"}, {"measurement": "Cefixime MIC90", "setting": "[4]; with inhibitor at 1 μg/mL", "result": 4, "unit": "µg/mL"}, {"measurement": "Cefpodoxime MIC50", "setting": "[4]; with inhibitor at 1 μg/mL", "result": 1, "unit": "µg/mL"}, {"measurement": "Cefpodoxime MIC90", "setting": "[4]; with inhibitor at 1 μg/mL", "result": 8, "unit": "µg/mL"}, {"measurement": "Ceftibuten MIC50", "setting": "[4]; with inhibitor at 1 μg/mL", "result": 0.125, "unit": "µg/mL"}, {"measurement": "Ceftibuten MIC90", "setting": "[4]; with inhibitor at 1 μg/mL", "result": 0.5, "unit": "µg/mL"}, {"measurement": "Cephalexin MIC50", "setting": "[4]; with inhibitor at 1 μg/mL", "result": 8, "unit": "µg/mL"}, {"measurement": "Cephalexin MIC90", "setting": "[4]; with inhibitor at 1 μg/mL", "result": 32, "unit": "µg/mL"}, {"measurement": "Cefdinir MIC50", "setting": "[4]; with inhibitor at 2 μg/mL", "result": 0.5, "unit": "µg/mL"}, {"measurement": "Cefdinir MIC90", "setting": "[4]; with inhibitor at 2 μg/mL", "result": 2, "unit": "µg/mL"}, {"measurement": "Cefixime MIC50", "setting": "[4]; with inhibitor at 2 μg/mL", "result": 0.5, "unit": "µg/mL"}, {"measurement": "Cefixime MIC90", "setting": "[4]; with inhibitor at 2 μg/mL", "result": 4, "unit": "µg/mL"}, {"measurement": "Cefpodoxime MIC50", "setting": "[4]; with inhibitor at 2 μg/mL", "result": 1, "unit": "µg/mL"}, {"measurement": "Cefpodoxime MIC90", "setting": "[4]; with inhibitor at 2 μg/mL", "result": 2, "unit": "µg/mL"}, {"measurement": "Ceftibuten MIC50", "setting": "[4]; with inhibitor at 2 μg/mL", "result": 0.125, "unit": "µg/mL"}, {"measurement": "Ceftibuten MIC90", "setting": "[4]; with inhibitor at 2 μg/mL", "result": 0.25, "unit": "µg/mL"}, {"measurement": "Cephalexin MIC50", "setting": "[4]; with inhibitor at 2 μg/mL", "result": 8, "unit": "µg/mL"}, {"measurement": "Cephalexin MIC90", "setting": "[4]; with inhibitor at 2 μg/mL", "result": 32, "unit": "µg/mL"}, {"measurement": "Cefdinir MIC50", "setting": "[4]; with inhibitor at 4 μg/mL", "result": 0.5, "unit": "µg/mL"}, {"measurement": "Cefdinir MIC90", "setting": "[4]; with inhibitor at 4 μg/mL", "result": 2, "unit": "µg/mL"}, {"measurement": "Cefixime MIC50", "setting": "[4]; with inhibitor at 4 μg/mL", "result": 0.25, "unit": "µg/mL"}, {"measurement": "Cefixime MIC90", "setting": "[4]; with inhibitor at 4 μg/mL", "result": 1, "unit": "µg/mL"}, {"measurement": "Cefpodoxime MIC50", "setting": "[4]; with inhibitor at 4 μg/mL", "result": 1, "unit": "µg/mL"}, {"measurement": "Cefpodoxime MIC90", "setting": "[4]; with inhibitor at 4 μg/mL", "result": 2, "unit": "µg/mL"}, {"measurement": "Ceftibuten MIC50", "setting": "[4]; with inhibitor at 4 μg/mL", "result": 0.125, "unit": "µg/mL"}, {"measurement": "Ceftibuten MIC90", "setting": "[4]; with inhibitor at 4 μg/mL", "result": 0.25, "unit": "µg/mL"}, {"measurement": "Cephalexin MIC50", "setting": "[4]; with inhibitor at 4 μg/mL", "result": 8, "unit": "µg/mL"}, {"measurement": "Cephalexin MIC90", "setting": "[4]; with inhibitor at 4 μg/mL", "result": 16, "unit": "µg/mL"}, {"measurement": "bacterial titers lower than ceftibuten alone, bladders", "setting": "[5]", "result": 3.2, "unit": "log10 CFU/g"}, {"measurement": "bacterial titers lower than ceftibuten alone, urine", "setting": "[5]", "result": "up to 4 log10 CFU/mL"}, {"measurement": "ceftibuten MICs", "setting": "[6]", "result": "<0.06 to 0.12", "unit": "µg/mL"}]}]}
